# Laboratory results from ChEMBL document CHEMBL1148909, “Antineoplastic agents. 535. Isolation and structure of plakorstatins 1 and 2 from the Indo-Pacific sponge Plakortis nigra” (2004).
# System: P388
# Assay: Growth inhibition of mouse P388 cells
# Assay type: functional
# Conditions: read-out: ED50 (the source's name)
row,Compound,EC50
1,"CC/C(=C\[C@@]1(CC)C[C@H](CC)[C@H](CC(=O)OC)OO1)[C@H]1O[C@H]1CC (single isomer, unassigned) [PLAKORSTATIN 1]",1.1 µg/mL
2,"CC/C(=C\[C@@]1(CC)C[C@H](CC)[C@H](CC(=O)OC)OO1)[C@@H]1O[C@@H]1CC (single isomer, unassigned) [PLAKORSTATIN 2]",0.91 µg/mL
